The text below walks through data of patent US12465614B2, “Budesonide 21-phosphate salts and pharmaceutical compositions containing the same” (GENETIC S.P.A., priority 2020, dated 2025).

The test system of test [1] is mice with OVA-induced allergic asthma. The test can be described thus: Circulating leukocyte cell counts (Experimental Groups II). It is filed as in vivo. The conditions noted are these: i.n.; FB all tested doses (0.3, 1.0, 3.0 nmol/animal); B and F 3 nmol/animal. How it is done: Male Balb/c SPF mice (25*2 g, 6-week-old) were purchased from the animal house facilities at the São Paulo School of Medicine (Federal University of São Paulo, Brazil). They were group-housed in a temperature-controlled room at 22° C. with a 12/12-hour light/dark cycle and allowed free access to food and water. The study is in agreement with the Ethical Principles for Animal Research established by the Brazilian College for Animal Experimentation (COBEA). According to the internal laboratory rules, euthanasia is performed if severe distress related to the test agents developed during the experiment. […] The compounds were dissolved in DMSO (Sigma Chemical Co., St. Louis, MO) at concentrations at which the determined dose per animal results from the intraperitoneal administration of 100 μl of solution (1:10 DMSO) and intra-nasal (i.n.) administration of 10 μl/animal (5 μl/nostril) of the solutions. Mice were sensitized with two subcutaneous injections of 0.4 ml of OVA/Al(OH)3, with an interval of 7 days (Sham animals received the Al(OH)3 suspension in PBS with no OVA). Seven days after the second sensitization (i.e., 3rd week), the animals were nebulized twice a week with the 1% OVA solution (Sham and untreated OVA groups were nebulized with PBS) during 20 minutes for the next 2 weeks. Sixty minutes before the challenges (OVA nebulization) and daily during the next 4 weeks, mice were intra-nasally treated (10 μl/animal as 5 μl/nostril) with the respective compounds/vehicle. After Penh evaluation, the mice were anesthetized with inhaled isofluorane (5% v/v in O2) and blood samples were collected from the descending abdominal aorta. The mice were then euthanized by exsanguination (blood samples were collected from each animal for leukocyte cell counting), and bronchoalveolar lavage (BAL) was performed by exposing and cannulating the trachea with a polyethylene tube (1 mm outer diameter) connected to a syringe. The lungs were washed by flushing 300 μL of heparin-containing PBS solution (20 Ul/mL). The retrieved BAL lavage aliquots were obtained, and the same procedure was repeated four additional times. The samples were submitted to centrifugation (1000 g for 10 min) and the cell pellet was resuspended in 200 μL of PBS solution. Total cell counts were determined using a Neubauer chamber, and differential counting was carried out in cytospin (Fanem Mod 2400; São Paulo, Brazil) preparations stained with May-Grünwald dye. Leukocytes were classified based on normal morphological criteria.

In the next test the test system is OVA-sensitized mice. The test can be described thus: Bronchial relaxation to salbutamol, isolated bronchi of OVA-sensitized mice (Experimental Groups I). The format is in vivo. Conditions: 1 mg/Kg i.p.; rings precontracted with carbachol; vs OVA group; FIG. 10B.

Entries after “also recorded” stand apart in the source; their conditions may differ.

Turning to `CCCC1OC2CC3C4CCC5=CC(=O)C=CC5(C)C4C(O)CC3(C)C2(C(=O)COP(=O)(O)O)O1` (centres unmarked) [B, Budesonide 21-phosphate], the circulating macrophages result in test [1] is on record as “significantly reduced the number of macrophages; also recorded: mild decrease of circulating macrophages”. The “bronchial relaxation to salbutamol” value in the test with OVA-sensitized mice is given as “did not ameliorate the lack of bronchial response to salbutamol”.
